Where a name gives a salt, the structure may show the parent alone.
Legend:
human KDR enzyme = molecular target: T1, human KDR enzyme (Homo sapiens, UniProt P35968); assay: in vitro test of phosphorylation of substrate with the enzyme KDR (scintillation technique); type: biochemical; settings: Table 1; unit inferred; read-out: KDR (concentration that inhibits 50% of the kinase activity)
T1 construct: The cytoplasmic domain of the human KDR enzyme was cloned in the form of a GST fusion; GST; made in house; host or cells: SF21 insect cells (baculovirus, pFastBac)
Description: Determination of the Activity of the Compounds—Experimental Protocols 1. KDR
The inhibitory effect of the compounds is determined in an in vitro test of phosphorylation of substrate with the enzyme KDR via a scintillation technique (96-well plate, NEN).
The cytoplasmic domain of the human KDR enzyme was cloned in the form of a GST fusion in the pFastBac baculovirus expression vector. The protein was expressed in the SF21 cells and purified to about 60% homogeneity.
The KDR kinase activity is measured in 20 mM MOPS, 10 mM MgCl2, 10 mM MnCl2, 1 mM DTT, 2.5 mM EGTA, 10 mM b-glycerophosphate, pH=7.2, in the presence of 10 mM MgCl2, 100 μm Na3VO4, 1 mM NaF. 10 μl of the compound are added to 70 μl of kinase buffer containing 100 ng of KDR enzyme at 4° C. The reaction is initiated by adding 20 μl of solution containing 2 μg of substrate (SH2-SH3 fragment of PLCγ expressed in the form of a GST fusion protein), 2 μCi of γ^33P[ATP] and 2 μm of cold ATP. After incubation for 1 hour at 37° C., the reaction is stopped by adding 1 volume (100 μl) of 200 mM EDTA. The incubation buffer is removed, and the wells are washed three times with 300 μl of PBS. The radioactivity in each well is measured using a Top Count NXT radioactivity counter (Packard).
The background noise is determined by measuring the radioactivity in four different wells containing radioactive ATP and the substrate alone.
A total activity control is measured in four different wells containing all the reagents (γ^33P—[ATP], KDR and substrate PLCγ), but in the absence of compound.
The inhibition of the KDR activity with the compound of the invention is expressed as a percentage of inhibition of the control activity determined in the absence of compound.
Compound SU5614 (Calbiochem) (1 μM) is included in each plate as an inhibition control.

human Tie2 = molecular target: T2, human Tie2 (Homo sapiens, UniProt Q02763); assay: test of phosphorylation of PLC with Tie2 (GST-Tie2); type: biochemical; settings: Table 1; unit inferred; read-out: Tie2 (concentration that inhibits 50% of the kinase activity)
T2 construct: amino acids of the intracellular domain 776-1124; made in house; host or cells: baculovirus expression (pFastBacGT)
Description: The coding sequence of human Tie2 corresponding to the amino acids of the intracellular domain 776-1124 was generated by PCR using the cDNA isolated from a human placenta as a model. This sequence was introduced into a pFastBacGT baculovirus expression vector in the form of a GST fusion protein.
The inhibitory effect of the molecules is determined in a test of phosphorylation of PLC with Tie2 in the presence of GST-Tie2 purified to about 80% homogeneity. The substrate is composed of the SH2-SH3 fragments of PLC expressed in the form of a GST fusion protein.
The kinase activity of Tie2 is measured in a MOPS 20 mM pH 7.2 buffer, containing 10 mM MgCl2, 10 mM MnCl2, 1 mM DTT, 10 mM of glycerophosphate. In a 96-well FlashPlate plate maintained on ice, a reaction mixture is deposited, composed of 70 μL of kinase buffer containing 100 ng of enzyme GST-Tie2 per well. Next, 10 μL of the test molecule diluted in DMSO to a maximum concentration of 10% are added. For a given concentration, each measurement is performed four times. The reaction is initiated by adding 20 μl of solution containing 2 μg of GST-PLC, 2 μm of cold ATP and 1 μCi of δ^33P[ATP]. After incubation for one hour at 37° C., the reaction is stopped by adding 1 volume (100 μl) of 200 mM EDTA. After removal of the incubation buffer, the wells are washed three times with 300 μL of PBS. The radioactivity is measured on a MicroBeta 1450 Wallac.
The inhibition of the Tie2 activity is calculated and expressed as a percentage of inhibition relative to the control activity determined in the absence of compound.

T1 sequence (P35968 786-1356 limits assumed): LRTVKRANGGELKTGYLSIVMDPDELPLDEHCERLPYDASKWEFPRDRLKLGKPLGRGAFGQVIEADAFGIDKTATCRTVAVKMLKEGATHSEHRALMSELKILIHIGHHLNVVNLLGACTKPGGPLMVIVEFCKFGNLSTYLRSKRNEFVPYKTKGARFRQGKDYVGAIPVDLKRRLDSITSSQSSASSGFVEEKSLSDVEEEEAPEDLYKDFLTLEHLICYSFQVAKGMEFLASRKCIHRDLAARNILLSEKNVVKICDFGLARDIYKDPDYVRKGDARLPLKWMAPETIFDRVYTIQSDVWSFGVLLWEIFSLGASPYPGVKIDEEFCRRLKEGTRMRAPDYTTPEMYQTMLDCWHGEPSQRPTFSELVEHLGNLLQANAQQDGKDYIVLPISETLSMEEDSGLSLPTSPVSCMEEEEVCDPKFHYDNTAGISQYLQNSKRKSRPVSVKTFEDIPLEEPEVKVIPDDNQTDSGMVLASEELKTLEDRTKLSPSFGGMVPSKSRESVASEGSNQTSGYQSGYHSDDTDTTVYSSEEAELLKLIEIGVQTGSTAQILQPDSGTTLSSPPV
T2 sequence (Q02763 776-1124): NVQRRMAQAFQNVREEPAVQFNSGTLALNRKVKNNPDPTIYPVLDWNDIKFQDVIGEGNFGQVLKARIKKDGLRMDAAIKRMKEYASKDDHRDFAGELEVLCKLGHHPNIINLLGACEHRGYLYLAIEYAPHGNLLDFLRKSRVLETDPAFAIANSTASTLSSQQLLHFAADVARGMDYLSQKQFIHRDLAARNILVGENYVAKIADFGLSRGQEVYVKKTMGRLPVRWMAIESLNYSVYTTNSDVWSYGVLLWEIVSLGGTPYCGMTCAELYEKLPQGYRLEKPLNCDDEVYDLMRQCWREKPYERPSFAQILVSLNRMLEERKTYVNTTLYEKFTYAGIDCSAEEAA

SMILES | IC50 (human KDR enzyme) [nM] | IC50 (human Tie2) [nM]
NC(=O)c1n[nH]cc1NCc1cccc(NC(=O)Nc2cc(C(F)(F)F)ccc2F)c1 [Example 2a, 4-{[3-({[2-fluoro-5-(trifluoromethyl)phenyl]carbamoyl}amino)benzyl]-amino}-1H-pyrazole-3-carboxamide trifluoroacetate] | 8 | 20
NC(=O)c1n[nH]cc1NCc1cccc(NC(=O)Nc2cc(F)cc(C(F)(F)F)c2)c1 [Example 7, 4-{[3-({[3-fluoro-5-(trifluoromethyl)phenyl]carbamoyl}amino)benzyl]-amino}-1H-pyrazole-3-carboxamide trifluoroacetate] | 4.5 | 72.7
COC(=O)c1cccc(NC(=O)Nc2cccc(CNc3c[nH]nc3C(N)=O)c2)c1 [Example 9, Methyl 3-{[(3-{[(3-carbamoyl-1H-pyrazol-4-yl)-amino]methyl}phenyl)-carbamoyl]amino}benzoate trifluoroacetate] | 21.8 | 4510

Now from value to compound:

IC50 (human KDR enzyme) [nM] | IC50 (human Tie2) [nM] | SMILES
11.8 | 1460 | COc1cc(NC(=O)Nc2cccc(CNc3c[nH]nc3C(N)=O)c2)cc(OC)c1 [Example 13, 4-[(3-{[(3,5-dimethoxyphenyl)carbamoyl]amino}benzyl)amino]-1H-pyrazole-3-carboxamide trifluoroacetate]
64.1 | 1000 | COC(=O)c1n[nH]cc1NCc1cccc(NC(=O)Nc2cc(C(F)(F)F)ccc2F)c1 [Example 32, Methyl 4-{[3-({[2-fluoro-5-(trifluoromethyl)phenyl]carbamoyl}amino)-benzyl]amino}-1H-pyrazole-3-carboxylate trifluoroacetate]
